Assay results from US10758569B2, “Heteroaryl disulfide compounds as allosteric effectors for increasing the oxygen-binding affinity of hemoglobin” (The General Hospital Corporation, priority 2014, dated 2020).

Tests used:
whole blood = test: ODC (P50) of whole blood; conditions: 6:1 molar ratio of compound to hemoglobin (120 μM)
Method: The ODC of hemoglobin was measured with a HEMOX analyzer (TCS Scientific Corporation) at 37° C. For experiments with purified hemoglobin, hemoglobin (20 μM as tetramer) was dissolved in DPBS and antifoam (0.2 vol %, Catalog No. AFA-25, TCS Scientific Corporation) was added to prevent foaming of the sample. Compounds were prepared in DMSO stock solutions then added to hemoglobin. […] For experiments with RBCs, blood was drawn from volunteers into EDTA tubes. The blood was centrifuged for 15 min at 3,000 rpm at 4° C. The supernatant was discarded, and RBCs were washed three times with DPBS, pH 7.4 by dilution to 50% hematocrit.

hemoglobin = molecular target: T1, hemoglobin (Homo sapiens, UniProt P68871+P69905); test: Hemoglobin oxygen-binding assay (oxyHb %, plate format); assay type: biochemical; conditions: effector to hemoglobin tetramer 6 to 1 (mol/mol)
T1 construct: from tissue; host or cells: outdated donated human red blood cells (hemolysate supernatant, dialysed against DPBS)
Method: Test compounds (0.75 μL, 10 mM in DMSO) were added to the central area of two 384 deep well plates forming compound plates. DPBS was used as the solvent for myo-inositol hexaphosphate (IHP) and N-ethylmaleimide (NEM) (10 mM). To prevent oxidation of hemoglobin during the experiment, glucose-6-phosphate (0.4 mg/mL), glucose-6-phosphate dehydrogenase (1.0 U/mL), nicotinamide adenine dinucleotide phosphate (NADP, 0.05 mg/mL), ferredoxin (0.01 mg/mL), ferredoxin-NADP reductase (0.01 U/mL) and catalase (2×10^3 U/mL) were added to hemoglobin to produce the Hayashi reducing system, which is described in detail in Hayashi et al., Biochemica et Biophysica Acta, 1973, 310, 309-316. […]
The alteration of hemoglobin's oxygen-binding affinity by the test compounds binding to hemoglobin was evaluated in an environment where the fractional oxygen pressure (FO2) could be precisely measured and controlled. […] To confirm the allosteric effect of the test compounds, ODC of hemoglobin was measured in the presence and absence of each compound. […]
The ability of small molecules to alter the oxygen affinity of hemoglobin was determined by measuring the fraction of oxygenated hemoglobin (oxyHb %) and oxidized hemoglobin (metHb %) using spectrophotometry under three (high, medium, and low oxyHb saturation) conditions. […]

red blood cells = test: ODC of washed red blood cells in Hemox solution; assay type: cell-based, human; conditions: for P50 of red blood cells: mixed 1 h at 37° C.
From the text: For the reduction of P50, less amount of 1 was needed, and the reaction time of 1 with hemoglobin was faster than NEM and 5HMF.

[1] = system: red blood cells from sickle cell disease patients (SRBCs); conditions: reported value; cited from earlier work

T1 sequence (P68871 2-147 limits assumed): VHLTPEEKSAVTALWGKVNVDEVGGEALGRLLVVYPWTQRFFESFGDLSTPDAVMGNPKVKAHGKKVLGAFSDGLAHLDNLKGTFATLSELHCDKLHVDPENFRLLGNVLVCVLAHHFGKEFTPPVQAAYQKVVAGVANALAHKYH
T1 sequence (P69905 2-142 limits assumed): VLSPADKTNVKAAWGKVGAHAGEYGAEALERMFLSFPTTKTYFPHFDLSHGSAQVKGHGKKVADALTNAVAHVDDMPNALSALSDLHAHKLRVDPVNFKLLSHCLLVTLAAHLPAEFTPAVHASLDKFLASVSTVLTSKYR

Question: What does the source list for CCN1C(=O)C=CC1=O [NEM, N-ethylmaleimide]?
Answer: P50 of whole blood (whole blood): 20±1.1 Torr; change of oxyHb % (hemoglobin): increase; P50 of red blood cells (red blood cells; 400 μM): 8 Torr

Question: For O=P(O)(O)O[C@H]1[C@H](OP(=O)(O)O)[C@@H](OP(=O)(O)O)[C@H](OP(=O)(O)O)[C@@H](OP(=O)(O)O)[C@H]1OP(=O)(O)O [IHP, myo-inositol hexaphosphate], which “change of oxyHb %” value (hemoglobin) is on record?
Answer: decrease

Question: For O=Cc1ccc(CO)o1 [Compound 5-HMF, 5-(Hydroxymethyl)furfural], which “P50 of whole blood” value (whole blood) is on record?
Answer: 26±0.5 Torr

Question: And the “P50 of red blood cells” value (red blood cells; 2 mM)?
Answer: 9 Torr

Question: And the “P50 of RBCs” value (red blood cells; Compound 1 at 120 μM (6:1 to Hb tetramer), HEMOX solution, 5 vol % DMSO, 10 min at 37° C.)?
Answer: 27±0.5 Torr

Question: What about the “concentration required to reduce sickling of hypoxic SS RBCs by nearly 90%” value [1] of the same molecule?
Answer: 5 mM
